Measurements: patent US8710038B2, “Pyrazole kinase modulators and methods of use” (Exelixis, Inc., priority 2004, dated 2014)

What was measured:
flt-3 = biological target: T1, flt-3 (Homo sapiens, UniProt P36888); test: flt-3 Luciferase-Coupled Chemiluminescent Kinase assay (LCCA); type: biochemical
T1 construct: baculovirus expressed human Flt-3 kinase domain R571-S993
T1 sequence (P36888 571-993): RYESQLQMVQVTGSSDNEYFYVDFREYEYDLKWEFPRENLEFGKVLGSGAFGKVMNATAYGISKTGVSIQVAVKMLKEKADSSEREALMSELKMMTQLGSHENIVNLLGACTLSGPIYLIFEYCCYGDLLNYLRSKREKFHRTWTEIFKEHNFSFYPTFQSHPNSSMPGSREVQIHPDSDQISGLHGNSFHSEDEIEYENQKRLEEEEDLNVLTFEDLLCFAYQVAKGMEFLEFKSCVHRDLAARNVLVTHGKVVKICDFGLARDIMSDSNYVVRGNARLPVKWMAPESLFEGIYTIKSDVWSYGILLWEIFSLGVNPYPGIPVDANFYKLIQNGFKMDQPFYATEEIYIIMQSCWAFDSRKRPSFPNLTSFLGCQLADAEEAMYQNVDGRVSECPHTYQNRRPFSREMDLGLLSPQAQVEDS
How it was run: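 Baculovirus-expressed human Flt-3 kinase domain (R571-S993, 5 nM) was reacted with 5 μM ATP and 3 μM poly-EY in Tris pH 7.5 buffer with MgCl2/MnCl2 for 3 h at ambient temperature. Remaining ATP was read by luciferase-luciferin chemiluminescence, with ATP consumption standardized to 25-45%, for IC50.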

c-Kit = c-Kit (Homo sapiens, UniProt P10721); test: c-Kit biochemical assay (AlphaScreen)
How it was run: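 Kinase, compound, ATP and biotinylated poly(Glu,Tyr) 4:1 reacted 1 hr at ambient temperature; quenched with EDTA buffer (pH 7.4) containing streptavidin donor and anti-phosphotyrosine PY100 acceptor beads, incubated 16 hr, then AlphaScreen signal read to give IC50.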

EphB4 = biological target: T2, EphB4 (Homo sapiens, UniProt P54760); test: EphB4 kinase inhibition assay; type: biochemical
T2 sequence (P54760 16-987): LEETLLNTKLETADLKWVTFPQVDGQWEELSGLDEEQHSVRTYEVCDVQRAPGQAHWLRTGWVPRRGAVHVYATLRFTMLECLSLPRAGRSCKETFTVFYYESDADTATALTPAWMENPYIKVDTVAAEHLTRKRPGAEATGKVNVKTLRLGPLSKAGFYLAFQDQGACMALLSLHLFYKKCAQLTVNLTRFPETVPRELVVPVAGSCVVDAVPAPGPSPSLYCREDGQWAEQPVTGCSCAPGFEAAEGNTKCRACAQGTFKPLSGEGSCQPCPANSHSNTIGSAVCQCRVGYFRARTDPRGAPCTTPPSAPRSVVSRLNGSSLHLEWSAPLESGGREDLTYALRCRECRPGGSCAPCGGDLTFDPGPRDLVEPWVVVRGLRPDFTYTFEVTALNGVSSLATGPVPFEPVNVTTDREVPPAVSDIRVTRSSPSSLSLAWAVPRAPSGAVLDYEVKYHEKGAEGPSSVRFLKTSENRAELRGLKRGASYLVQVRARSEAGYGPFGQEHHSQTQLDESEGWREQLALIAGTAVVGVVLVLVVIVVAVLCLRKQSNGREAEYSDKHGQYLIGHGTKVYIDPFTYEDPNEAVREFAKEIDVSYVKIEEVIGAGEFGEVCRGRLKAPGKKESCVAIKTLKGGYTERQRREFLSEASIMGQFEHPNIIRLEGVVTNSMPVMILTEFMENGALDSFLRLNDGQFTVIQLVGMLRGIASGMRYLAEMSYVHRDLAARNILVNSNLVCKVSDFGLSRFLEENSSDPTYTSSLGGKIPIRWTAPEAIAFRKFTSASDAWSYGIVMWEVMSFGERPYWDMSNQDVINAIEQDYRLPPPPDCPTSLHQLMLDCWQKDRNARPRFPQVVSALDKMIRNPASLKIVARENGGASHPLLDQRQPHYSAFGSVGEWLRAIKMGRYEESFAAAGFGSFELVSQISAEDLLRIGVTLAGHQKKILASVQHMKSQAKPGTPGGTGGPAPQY
How it was run: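 ATP near each kinase's KM; 10-point dose-response fitted to a four-parameter equation for IC50. Formats: γ33P-ATP transfer to plate-coated substrate (1.5-2.5 h, ambient, scintillation), luciferase-coupled ATP-consumption read-out (2-4 h, 25-45% ATP consumed), or AlphaScreen with biotinylated poly(Glu,Tyr) 4:1 (1 h).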

EGFR = EGFR (Homo sapiens, UniProt P00533); test: EGFR kinase inhibition assay; type: biochemical
Sequence of EGFR (P00533 25-1210, species assumed): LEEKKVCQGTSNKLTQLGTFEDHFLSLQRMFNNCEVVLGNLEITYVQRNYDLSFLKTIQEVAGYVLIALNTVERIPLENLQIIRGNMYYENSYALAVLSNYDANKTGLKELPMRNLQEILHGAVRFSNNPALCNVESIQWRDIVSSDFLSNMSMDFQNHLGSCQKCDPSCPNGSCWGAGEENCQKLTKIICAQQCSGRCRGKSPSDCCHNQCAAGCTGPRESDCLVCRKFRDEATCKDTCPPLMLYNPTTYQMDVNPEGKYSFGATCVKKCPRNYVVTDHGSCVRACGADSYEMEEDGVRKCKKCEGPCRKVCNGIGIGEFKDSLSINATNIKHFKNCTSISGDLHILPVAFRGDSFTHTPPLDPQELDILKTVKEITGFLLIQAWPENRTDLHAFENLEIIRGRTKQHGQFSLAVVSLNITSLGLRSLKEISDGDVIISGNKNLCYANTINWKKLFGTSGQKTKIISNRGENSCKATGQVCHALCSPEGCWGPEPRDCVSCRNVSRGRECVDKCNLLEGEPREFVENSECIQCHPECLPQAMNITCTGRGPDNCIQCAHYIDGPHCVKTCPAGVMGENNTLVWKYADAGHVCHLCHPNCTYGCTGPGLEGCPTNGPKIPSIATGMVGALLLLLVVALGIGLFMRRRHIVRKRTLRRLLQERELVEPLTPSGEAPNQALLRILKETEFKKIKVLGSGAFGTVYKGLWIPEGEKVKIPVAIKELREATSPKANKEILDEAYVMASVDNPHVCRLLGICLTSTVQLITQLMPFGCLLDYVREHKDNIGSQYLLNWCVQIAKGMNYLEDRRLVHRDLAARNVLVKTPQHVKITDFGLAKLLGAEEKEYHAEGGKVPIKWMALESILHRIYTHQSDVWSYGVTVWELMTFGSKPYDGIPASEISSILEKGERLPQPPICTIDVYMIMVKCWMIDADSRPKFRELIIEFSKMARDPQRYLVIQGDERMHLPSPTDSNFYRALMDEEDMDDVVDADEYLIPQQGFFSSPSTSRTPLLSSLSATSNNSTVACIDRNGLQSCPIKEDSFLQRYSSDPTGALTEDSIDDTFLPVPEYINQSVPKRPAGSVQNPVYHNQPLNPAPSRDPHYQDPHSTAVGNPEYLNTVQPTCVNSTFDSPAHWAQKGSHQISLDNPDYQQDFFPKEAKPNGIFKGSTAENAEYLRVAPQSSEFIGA

Sequence of c-Kit (P10721 26-976): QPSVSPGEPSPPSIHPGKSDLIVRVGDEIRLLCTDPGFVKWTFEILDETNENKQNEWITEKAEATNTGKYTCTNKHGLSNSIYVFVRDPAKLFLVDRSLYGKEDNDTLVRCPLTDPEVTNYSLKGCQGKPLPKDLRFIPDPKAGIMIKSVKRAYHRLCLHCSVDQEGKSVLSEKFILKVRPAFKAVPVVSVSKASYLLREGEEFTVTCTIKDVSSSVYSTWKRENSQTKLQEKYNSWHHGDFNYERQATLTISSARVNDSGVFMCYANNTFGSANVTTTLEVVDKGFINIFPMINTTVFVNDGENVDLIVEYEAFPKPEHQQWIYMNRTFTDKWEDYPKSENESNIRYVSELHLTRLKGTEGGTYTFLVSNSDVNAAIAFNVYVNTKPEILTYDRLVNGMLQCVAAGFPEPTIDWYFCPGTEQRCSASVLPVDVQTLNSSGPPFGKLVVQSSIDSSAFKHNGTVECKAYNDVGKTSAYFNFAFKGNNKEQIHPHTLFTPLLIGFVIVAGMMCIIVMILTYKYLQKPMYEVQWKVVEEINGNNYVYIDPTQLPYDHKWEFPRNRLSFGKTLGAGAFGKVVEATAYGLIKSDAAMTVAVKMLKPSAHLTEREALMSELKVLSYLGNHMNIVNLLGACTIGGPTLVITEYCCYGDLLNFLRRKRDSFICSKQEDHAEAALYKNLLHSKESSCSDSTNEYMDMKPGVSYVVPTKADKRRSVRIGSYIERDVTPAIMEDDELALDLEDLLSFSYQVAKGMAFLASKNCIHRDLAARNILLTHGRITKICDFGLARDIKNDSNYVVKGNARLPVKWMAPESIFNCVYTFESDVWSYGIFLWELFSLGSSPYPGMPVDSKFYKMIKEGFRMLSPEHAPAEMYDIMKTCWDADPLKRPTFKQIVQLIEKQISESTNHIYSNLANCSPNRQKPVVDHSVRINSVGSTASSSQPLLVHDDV

Row | SMILES | IC50 (flt-3) | IC50 (c-Kit) | IC50 (EphB4) | IC50 (EGFR)
1 | O=C(Nc1ccc(-c2cc(-c3nc4ccccc4[nH]3)n[nH]2)cc1)Nc1cc(C(F)(F)F)ccc1F [Entry 31, N-{4-[3-(1H-benzimidazol-2-yl)-1H-pyrazol-5-yl]phenyl}-N′-[2-fluoro-5-(trifluoromethyl)phenyl]urea] | < 50 nM | < 50 nM | > 5000 nM | > 5000 nM
2 | CN1CCN(c2ccc3[nH]c(-c4cc(-c5ccc(NC(=O)Nc6ccccc6)cc5)[nH]n4)nc3c2)CC1 [Entry 39, N-(4-{3-[5-(4-methylpiperazin-1-yl)-1H-benzimidazol-2-yl]-1H-pyrazol-5-yl}phenyl)-N′-phenylurea] | < 50 nM | 50 to 500 nM | > 5000 nM | > 5000 nM
3 | CN1CCN(c2ccc(-c3cc(-c4ccc(NC(=O)Nc5ccc(F)cc5F)cc4)[nH]n3)cc2)CC1 [Entry 41, N-(2,4-difluorophenyl)-N′-(4-{3-[4-(4-methylpiperazin-1-yl)phenyl]-1H-pyrazol-5-yl}phenyl)urea] | < 50 nM | 50 to 500 nM | > 5000 nM | > 5000 nM
4 | COc1cccc(NC(=O)Nc2ccc(-c3cc(-c4nc5cc(N6CCN(C)CC6)ccc5[nH]4)n[nH]3)cc2)c1 [Entry 20, N-[3-(methyloxy)phenyl]-N′-(4-{3-[5-(4-methylpiperazin-1-yl)-1H-benzimidazol-2-yl]-1H-pyrazol-5-yl}phenyl)urea] | < 50 nM | < 50 nM | > 5000 nM | > 5000 nM
5 | CN1CCN(c2ccc(-c3cc(-c4ccc(NC(=O)Nc5ccc(Cl)c(C(F)(F)F)c5)cc4)[nH]n3)cc2)CC1 [Entry 16, N-[4-chloro-3-(trifluoromethyl)phenyl]-N′-(4-{3-[4-(4-methylpiperazin-1-yl)phenyl]-1H-pyrazol-5-yl}phenyl)urea] | < 50 nM | < 50 nM | > 5000 nM | > 5000 nM
6 | CN1CCN(c2ccc3[nH]c(-c4cc(-c5ccc(NC(=O)Nc6ccc(Oc7ccccc7)cc6)cc5)[nH]n4)nc3c2)CC1 [Entry 9, N-(4-{3-[5-(4-methylpiperazin-1-yl)-1H-benzimidazol-2-yl]-1H-pyrazol-5-yl}phenyl)-N′-[4-(phenyloxy)phenyl]urea] | < 50 nM | < 50 nM | > 5000 nM | > 5000 nM
7 | CN1CCN(c2ccc3[nH]c(-c4cc(-c5ccc(NC(=O)Nc6ccc(Cl)c(Cl)c6)cc5)[nH]n4)nc3c2)CC1 [Entry 6, N-(3,4-dichlorophenyl)-N′-(4-{3-[5-(4-methylpiperazin-1-yl)-1H-benzimidazol-2-l]-1H-pyrazol-5-yl}phenyl)urea] | < 50 nM | < 50 nM | > 5000 nM | > 5000 nM
8 | Oc1ccc(/C=C/c2cc(-c3ccc(Cl)cc3)n[nH]2)cc1 [Entry 61, 4-{(E)-2-[3-(4-chlorophenyl)-1H-pyrazol-5-yl]ethenyl}phenol] | 50 to 500 nM | 500 to 5000 nM | > 5000 nM | > 5000 nM
9 | CN1CCN(c2ccc(-c3cc(/C=C/c4ccc(O)cc4)[nH]n3)cc2)CC1 [Entry 51, 4-((E)-2-{3-[4-(4-methylpiperazin-1-yl)phenyl]-1H-pyrazol-5-yl}ethenyl)phenol] | < 50 nM | 50 to 500 nM | > 5000 nM | > 5000 nM
10 | Oc1ccc(/C=C/c2cc(-c3ccc4ccccc4c3)[nH]n2)cc1 [Entry 56, 4-[(E)-2-(5-naphthalen-2-yl-1H-pyrazol-3-yl)ethenyl]phenol] | 50 to 500 nM | 50 to 500 nM | > 5000 nM | > 5000 nM
11 | CN1CCN(c2cccc(-c3cc(/C=C/c4ccc(O)cc4)[nH]n3)c2)CC1 [Entry 58, 4-((E)-2-{3-[3-(4-methylpiperazin-1-yl)phenyl]-1H-pyrazol-5-yl}ethenyl)phenol] | 50 to 500 nM | 50 to 500 nM | > 5000 nM | > 5000 nM
12 | COc1cc(/C=C/c2cc(/C=C/c3ccc(Cl)cc3)n[nH]2)ccc1O [Entry 48, 4-((E)-2-{3-[(E)-2-(4-chlorophenyl)ethenyl]-1H-pyrazol-5-yl}ethenyl)-2-(methyloxy)phenol] | < 50 nM | 50 to 500 nM | > 5000 nM | > 5000 nM
13 | CCc1cccc(NC(=O)Nc2ccc(-c3cc(-c4nc5cc(N6CCN(CC)CC6)ccc5[nH]4)n[nH]3)cc2)c1 [Entry 3, N-(3-ethylphenyl)-N′-(4-{3-[5-(4-ethylpiperazin-1-yl)-1H-benzimidazol-2-yl]-1H-pyrazol-5-yl}phenyl)urea] | < 50 nM | < 50 nM | 500 to 5000 nM | > 5000 nM
14 | COc1cc(/C=C/c2cc(/C=C/c3ccc(F)cc3F)n[nH]2)ccc1O [Entry 59, 4-((E)-2-{3-[(E)-2-(2,4-difluorophenyl)ethenyl]-1H-pyrazol-5-yl}ethenyl)-2-(methyloxy)phenol] | < 50 nM | 50 to 500 nM | > 5000 nM | > 5000 nM
15 | CCN1CCN(c2ccc3nc(-c4cc(-c5ccc(NC(=O)Nc6ccc(F)cc6F)cc5)[nH]n4)[nH]c3c2)CC1 [Entry 29, N-(2,4-difluorophenyl)-N′-(4-{3-[6-(4-ethylpiperazin-1-yl)-1H-benzimidazol-2-yl]-1H-pyrazol-5-yl}phenyl)urea] | < 50 nM | < 50 nM | > 5000 nM | > 5000 nM
